Laboratory results as given in patent publication US10603384B2, “Pharmaceutical composition containing an antivirally active dihydroquinazoline derivative” (AICURIS GMBH & CO. KG, priority 2012, dated 2020).

Test system: HCMV AD 169 RV-HG
Assay: HCMV fluorescence-reduction test (GFP-RA)
Type: cell-based, human cytomegalovirus
Conditions: Human betaherpesvirus 5, AD169, NHDF, 168 h, read-out: EC50 (GFP-RA)
Excerpt: The in vitro effects of the compositions according to the present invention on the replication of the HCMV (human cytomegalovirus) can be seen in the following antiviral assay:
The solution from Example 8 is used without further dilution in the test. The composition from Example 6A is used as a 50-millimolar (mM) solution in dimethyl sulphoxide (DMSO). Ganciclovir®, Foscarnet® or Cidofovir® can be used as reference compositions. One day before the beginning of the test, 1.5×10^4 human foreskin fibroblasts (NHDF cells)/well are seeded in 200 μl of cell culture medium in Wells B2-G11 of 96-well plates (black with transparent floor). The wells along the edges of each 96-well plate are filled with 200 μl of medium only in order to prevent edge effects. […] The virus used is a recombinant HCMV which has integrated an expression cassette for green fluorescence protein (GFP) in the virus genome (HCMV AD 169 RV-HG [E. M. Borst, K. Wagner, A. Binz, B. Sodeik, and M. Messerle, 2008, J. Virol. 82:2065-2078.]). […] The GFP intensity of each well in a 96-well plate is then determined using a fluorescence scanner (FluoBox; Bayer Technology Services GmbH; filter settings: GFP, Ex 480 nm, Em 520 nm). The measured values thus obtained can be used to determine the EC50 of an anti-HCMV: […]

Structure (SMILES)	EC50 [nM]
COc1cccc(N2CCN(C3=Nc4c(F)cccc4[C@H](CC(=O)O)N3c3cc(C(F)(F)F)ccc3OC)CC2)c1 [Example 6A, (S)-{8-fluoro-2-[4-(3-methoxyphenyl)piperazine-1-yl]-3-(2-methoxy-5-trifluoromethylphenyl)-3,4-dihydroquinazoline-4-yl}acetic acid]	2.2 ± 0.2
Nc1nc(O)c2ncn(COC(CO)CO)c2n1 [Ganciclovir]	2500 ± 400
